From patent US6624157B2, “Thiadioxobenzodiazepine inhibitors of farnesyl protein transferase” (Bristol-Myers Squibb Company, priority 1996, dated 2003)
Where a name gives a salt, the structure may show the parent alone.

| melting point | SMILES |
| --- | --- |
| 128 °C | O=S1(=O)c2ccccc2N(Cc2cnc[nH]2)CCN1Cc1cccc2ccccc12 (as salt: hydrochloride) [Example 1, 2,3,4,5-Tetrahydro-5-(1H-imidazol-4-ylmethyl)-2-(1-naphthalenylmethyl)-1,2,5-benzothiadiazepine, 1,1-dioxide, monohydrochloride] |
| 95 °C | O=S1(=O)c2ccccc2N(Cc2cnc[nH]2)CCN1CCc1ccccc1 (as salt: hydrochloride) [Example 2, 2,3,4,5-Tetrahydro-5-(1H-imidazol-4-ylmethyl)-2-(2-phenylethyl)-1,2,5-benzothiadiazepine, 1,1-dioxide, monohydrochloride] |
| 180 °C | O=S1(=O)NC(Cc2ccccc2)CN(Cc2cnc[nH]2)c2ccc(Br)cc21 (stereo not shown) (as salt: hydrochloride) [Example 9, N-[2,3,4,5-Tetrahydro-8-bromo-5-(1H-imidazol-4-ylmethyl)-3-(phenylmethyl)-1,2,5-benzothiadiazepine, 1,1-dioxide, monohydrochloride] |
| 140 °C | CN1C(Cc2ccccc2)CN(Cc2cnc[nH]2)c2ccc(Br)cc2S1(=O)=O (stereo not shown) (as salt: hydrochloride) [Example 10, 2,3,4,5-Tetrahydro-8-bromo-2-methyl-5-(1H-imidazol-4-ylmethyl)-3-(phenylmethyl)-1,2,5-benzothiadiazepine, 1,1-dioxide, monohydrochloride] |
